In PMC8500837, “The tertiary structure of the human Xkr8–Basigin complex that scrambles phospholipids at plasma membranes” (Nature Structural & Molecular Biology, 2021):
Numbering of substitutions follows the chain as printed. Structures can show the parent of a compound that is named as a salt.

Legend:
[1] = target: T1, mXkr8 (mXkr8-GFP; mXkr8–BSG complex) (Mus musculus, UniProt Q8C0T0, W45A); assay: flow cytometry of NBD-SM internalization (BSA back-extraction) in Ba/F3 transformants; type: cell-based; details: 0.5 µM NBD-SM, 20 °C, labelled compound; constitutively active mutant
T1 construct: gene Xkr8; full length, C-terminal GFP tag, stably expressed in TMEM16F-/- Xkr8-/- mouse Ba/F3 cells; endogenous Basigin (or Neuroplastin) as partner; with Basigin
T1 sequence (Q8C0T0 1-401 W45A): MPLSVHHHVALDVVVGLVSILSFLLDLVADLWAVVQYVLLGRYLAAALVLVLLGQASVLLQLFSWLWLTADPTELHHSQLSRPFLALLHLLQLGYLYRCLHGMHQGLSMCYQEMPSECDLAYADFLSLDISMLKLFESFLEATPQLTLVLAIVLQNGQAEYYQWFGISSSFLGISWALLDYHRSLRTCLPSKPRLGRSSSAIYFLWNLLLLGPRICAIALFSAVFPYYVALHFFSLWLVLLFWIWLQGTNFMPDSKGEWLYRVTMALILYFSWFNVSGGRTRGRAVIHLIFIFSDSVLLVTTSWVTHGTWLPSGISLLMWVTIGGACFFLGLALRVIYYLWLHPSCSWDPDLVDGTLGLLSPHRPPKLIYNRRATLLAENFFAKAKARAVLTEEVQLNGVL
T1 sequence (P18572 22-389 partner): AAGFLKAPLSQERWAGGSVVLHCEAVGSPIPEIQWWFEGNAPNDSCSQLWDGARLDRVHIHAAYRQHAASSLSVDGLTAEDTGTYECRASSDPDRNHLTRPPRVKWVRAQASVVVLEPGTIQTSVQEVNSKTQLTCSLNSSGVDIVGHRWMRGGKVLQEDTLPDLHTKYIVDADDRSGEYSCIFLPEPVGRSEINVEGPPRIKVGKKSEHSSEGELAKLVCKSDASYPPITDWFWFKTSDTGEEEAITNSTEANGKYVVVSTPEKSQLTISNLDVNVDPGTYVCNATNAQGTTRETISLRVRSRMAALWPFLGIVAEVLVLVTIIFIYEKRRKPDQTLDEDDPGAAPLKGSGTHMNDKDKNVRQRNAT

[2] = target: T2, mXkr8 (mXkr8-GFP; mXkr8–BSG complex) (Mus musculus, UniProt Q8C0T0); assay: as above; type: cell-based; details: 0.5 µM NBD-SM, 4 °C or 20 °C, labelled compound; lipid scrambling outer to inner leaflet
T2 construct: gene Xkr8; full length, C-terminal GFP tag, stably expressed in TMEM16F-/- Xkr8-/- mouse Ba/F3 cells; endogenous Basigin (or Neuroplastin) as partner; with Basigin
T2 sequence (Q8C0T0 1-401): T1 sequence (Q8C0T0 1-401 W45A) with A45W
T2 sequence (P18572 22-389 partner): T1 sequence (P18572 22-389 partner)

Q: Which results are given for `CCCCCCCCCCCCC/C=C/[C@@H](O)[C@H](COP(=O)([O-])OCC[N+](C)(C)C)NC(=O)CCCCCNc1ccc([N+](=O)[O-])c2nonc12` [NBD-SM, (7S)-4-hydroxy-7-[(1R,2E)-1-hydroxy-2-hexadecen-1-yl]-N,N,N-trimethyl-14-[(7-nitro-2,1,3-benzoxadiazol-4-yl)amino]-9-oxo-3,5-dioxa-8-aza-4-phosphatetradecan-1-aminium, 4-oxide inner salt]?
A: fold internalization vs wild type [1]: ~ 3 fold; flow cytometry of NBD-SM internalization (BSA back-extraction) in Ba/F3 transfor [2]: Ba/F3 cell transformants expressing wild-type Xkr8 efficiently incorporated NBD-SM
